In patent publication US9260418B2, “Pyranyl aryl methyl benzoquinolinone M1 receptor positive allosteric modulators” (Merck Sharp & Dohme Corp., priority 2009, dated 2016):

Biological target: T1, acetylcholine muscarinic M1 receptor (Homo sapiens, UniProt P11229)
T1 construct: expressed in transfected cells; host or cells: CHOnfat cells (CHO), under Geneticin selection; b382 calls them CHOK1/hM1
T1 sequence (P11229 1-460): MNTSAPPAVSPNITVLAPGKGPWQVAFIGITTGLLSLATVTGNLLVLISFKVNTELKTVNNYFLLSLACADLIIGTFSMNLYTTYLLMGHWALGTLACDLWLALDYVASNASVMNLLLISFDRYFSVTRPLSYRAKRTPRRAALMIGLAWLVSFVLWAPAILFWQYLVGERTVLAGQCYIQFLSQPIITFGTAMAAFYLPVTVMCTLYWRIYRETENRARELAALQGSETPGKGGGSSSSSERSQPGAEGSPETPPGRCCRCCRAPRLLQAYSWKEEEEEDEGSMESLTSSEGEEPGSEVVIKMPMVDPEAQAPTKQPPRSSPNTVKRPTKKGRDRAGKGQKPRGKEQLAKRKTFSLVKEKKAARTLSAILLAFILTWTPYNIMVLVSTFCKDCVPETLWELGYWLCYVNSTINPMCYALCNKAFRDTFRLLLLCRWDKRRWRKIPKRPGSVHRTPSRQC
Assay: muscarinic FLIPR intracellular calcium assay, potentiation of EC20 acetylcholine in CHOnfat/hM1 cells
Format: cell-based
Details: inflection point calculated from FLIPR values, 4 min preincubation, then EC20 acetylcholine (3 nM final), read-out: IP Value
Description: The assay studies the effect of one or several concentrations of test compounds on basal or acetylcholine-stimulated Ca^2+ levels using FLIPR.
Compounds are prepared and subjected to a preincubation period of 4 min. Thereafter, a single EC20 concentration of acetylcholine is added to each well (3 nM final). The intracellular Ca^2+ level of each sample is measured and compared to an acetylcholine control to determine any modulatory activity.
Cells: CHOnfat/hM1, hM2, hM3 or hM4 cells are plated 24 hr before the assay at a density of 18,000 cells/well (100 μL) in a 384 well plate. CHOnfat/hM1 and CHOnfat/hM3 Growth Medium: 90% DMEM (Hi Glucose); 10% HI FBS; 2 mM L-glutamine; 0.1 mM NEAA; Pen-Strep; and 1 mg/ml Geneticin, are added. For M2Gqi5CHOnfat and M4Gqi5CHOnfat cells, an additional 600 ug/ml hygromycin is added.
Equipment: 384 well plate, 120 μL addition plate; 96-well Whatman 2 ml Uniplate Incubator, 37° C., 5% CO2; Skatron EMBLA-384 Plate Washer; Multimek Pipetting System; Genesis Freedom 200 System; Mosquito System; Temo Nanolitre Pipetting System; and FLIPR^384 Fluorometric Imaging Plate Reader System are used.
Buffers. Assay Buffer: Hanks Balanced Salt Solution, with 20 mM Hepes, 2.5 mM Probenecid (Sigma P-8761) first dissolved in 1 N NaOH, 1% Bovine Serum Albumin (Sigma A-9647). Dye Loading Buffer: Assay Buffer plus 1% Fetal Bovine Serum and Fluo-4AM/Pluronic Acid Mixture. 2 mM Fluo-4AM ester stock in DMSO (Molecular Probes F-14202) Concentration of 2 μM in buffer for a final concentration of 1 μM in Assay. 20% Pluronic Acid Solution stock, with concentration of 0.04% in Buffer, 0.02% in Assay.
65 μL of 2 mM Fluo-4AM are mixed with 130 μL of 20% Pluronic Acid. The resulting solution and 650 μL FBS is added to the assay buffer for a total volume of 65 mL. Positive Controls: 4-Br-A23187: 10 mM in DMSO; final concentration 10 μM. Acetylcholine: 10 mM in water, working stock at both 20 μM and 30 μM in assay buffer, final concentration of 10 μM. This is used to check the maximum stimulation of the CHOK1/hM1 cells. 20 μM (2×) acetylcholine is added in the preincubation part of the assay, and the 30 μM (3×) stock is added in the second part. (EC20)Acetylcholine: 10 mM in water, working stock of 9 nM (3×), and final concentration in assay is 3 nM. This is used after the preincubation with test compounds. Addition of the EC20 Acetylcholine to each well with a test compound will ascertain any modulator activity. 24 wells contain 3 nM Acetylcholine alone as a control.
Screening Plate: Compounds are titrated in 96-well plates (columns 2-11), 100% DMSO, started at a concentration of 15 mM (150× stock concentration), and 3-fold serial dilutions using Genesis Freedom200 System. Four 96-well plates are combined into a 384-well plate using Mosquito Nanolitre Pipetting System by transferring 1 μl of serial diluted compounds to each well, and 1 mM acetylcholine (100× stock concentration) were added as a control. Using Temo, 49 μl assay buffer is added to each well of the 384-well plate right before assay.
In a 96-well Whatman 2 ml Uniplate, 9 nM Acetylcholine (3×) is pipetted into wells corresponding to the screening compounds, and into control wells. The 30 μM acetylcholine control (3×) is added into control wells, and the 3× agonist plate is transferred into a 384 well plate.
Cells are washed three times with 100 μL of buffer, leaving 30 μL of buffer in each well. Using Multimek, 30 μL of Dye Loading Buffer is added into each well and incubated at 37° C., 5% CO2 for up to one hr.
After 60 min, the cells are washed three times with 100 μL of buffer, leaving 30 μL of buffer in each well. The cell plate, screening plate, and agonist addition plates are placed on the platform in the FLIPR and the door closed. A signal test to check background fluorescence and basal fluorescence signal is performed. Laser intensity is adjusted if necessary. […]

Structure (SMILES) | EC50 [nM]
O=C(O)c1ccc(Cc2cc3c(=O)n([C@H]4CCOC[C@@H]4O)cnc3c3ccccc23)cn1 [Example 18, 5-({3-[(3R,4S)-3-Hydroxytetrahydro-2H-pyran-4-yl]4-oxo-3,4-dihydrobenzo[h]quinazolin-6-yl}methyl)pyridine-2-carboxylic acid] | 124
CS(=O)(=O)c1ccc(Cc2cc3c(=O)n([C@H]4CCOC[C@@H]4O)cnc3c3ccccc23)cn1 [Example 16, 3-[(3R,4S)-3-Hydroxytetrahydro-2H-pyran-4-yl]-6-{[6-(methylsulfonyl)pyridine-3-yl]methyl}benzo[h]quinazolin-4(3H)-one] | 53
N#Cc1ccc(Cc2cc3c(=O)n([C@H]4CCOC[C@@H]4O)cnc3c3ccccc23)cn1 [Example 8, 5-({3-[(3R,4S)-3-Hydroxytetrahydro-2H-pyran-4-yl]-4-oxo-3,4-dihydrobenzo[h]quinazolin-6-yl}methyl)pyridine-2-carbonitrile] | 31
CC(=O)N1CC[C@H](n2cnc3c(cc(Cc4ccc(Cl)nc4)c4ccccc43)c2=O)[C@@H](O)C1 (racemic) [Example 36, rac-3-[(3R,4R)-1-acetyl-3-hydroxypiperidin-4-yl]-6-[(6-chloropyridin-3-yl)methyl]benzo[h]quinazolin-4(3H)-one] | 120
O=c1c2cc(Cc3ccnc(OC(F)F)c3)c3ccccc3c2ncn1[C@H]1CCOC[C@@H]1O [Example 30, 6-{[2-(Difluoromethoxy)pyridine-4-yl]methyl}-3-[(3R,4S)-3-hydroxytetrahydro-2H-pyran-4-yl]benzo[h]quinazolin-4(3H)-one] | 77
CC(C)(O)c1ccc(Cc2cc3c(=O)n([C@H]4CCOC[C@@H]4O)cnc3c3ccccc23)cn1 [Example 11, 6-{[6-(1-Hydroxy-1-methylethyl)pyridine-3-yl]methyl}-3-[(3R,4S)-3-hydroxytetrahydro-2H-pyran-4-yl]benzo[h]quinazolin-4(3H)-one] | 76
O=c1c2cc(Cc3ccnc(F)c3)c3ccccc3c2ncn1[C@H]1CCOC[C@@H]1O [Example 25, 6-[(2-Fluoropyridin-4-yl)methyl]-3-[(3R,4S)-3-hydroxytetrahydro-2H-pyran-4-yl]benzo[h]quinazolin-4(3H)-one] | 15
C[S+]([O-])c1ccc(Cc2cc3c(=O)n([C@H]4CCOC[C@@H]4O)cnc3c3ccccc23)cn1 (stereo partly drawn) [Example 17, 3-[(3R,4S)-3-Hydroxytetrahydro-2H-pyran-4-yl]-6-{[6-(methylsulfinyl)pyridine-3-yl]methyl}benzo[h]quinazolin-4(3H)-one] | 90
O=c1c2cc(Cc3cccnc3)c3ccccc3c2ncn1[C@H]1CCOC[C@@H]1O [Example 6] | 23
O=c1c2cc(Cc3ccc(Cl)nc3)c3ccccc3c2ncn1[C@H]1CCNC[C@@H]1O (racemic) [Example 35, rac-6-[(6-Chloropyridin-3-yl)methyl]-3-[(3R,4R)-3-hydroxypiperidin-4-yl]benzo[h]quinazolin-4(3)H-one] | 54
O=c1c2cc(Cc3ccc(N4CCOCC4)cc3)c3ccccc3c2ncn1[C@H]1CCOC[C@@H]1O [Example 12, 3-[(3R,4S)-3-Hydroxytetrahydro-2H-pyran-4-yl]-6-(4-morpholin-4-ylbenzyl)benzo[h]quinazolin-4(3H)-one] | 21
O=c1c2cc(Cc3ccc(Cl)nc3)c3ccccc3c2ncn1C1CCNCC1 [Example 37, 6-[(6-Chloropyridin-3-yl)methyl]-3-piperidin-4-ylbenzo[h]quinazolin-4(3H)-one] | 4800
O=c1c2cc(Cc3ccc(-n4cccn4)nc3)c3ccccc3c2ncn1[C@H]1CCOC[C@@H]1O [Example 5, 3-[(3R,4S)-3-Hydroxytetrahydro-2H-pyran-4-yl]-6-{[6-(1H-pyrazol-1-yl)pyridine-3-yl]methyl}benzo[h]quinazolin-4(3H)-one] | 15
CCn1ccc2c(Cc3cc4c(=O)n([C@H]5CCOC[C@@H]5O)cnc4c4ccccc34)ccnc21 [Example 32, 6-[(1-Ethyl-1H-pyrrolo[2,3-b]pyrdin-4-yl)methyl]-3-[(3R,4S)-3-hydroxytetrahydro-2H-pyran-4-yl]benzo[h]quinazolin-4(3H)-one] | 32
O=c1c2cc(Cc3ccc(Cl)nc3)c3ccccc3c2ncn1[C@H]1CCOC[C@@H]1O [Example 1, 6-[(6-Chloropyridin-3-yl)methyl]-3-[(3R,4S)-3-hydroxytetrahydro-2H-pyran-4-yl]benzo[h]quinazolin-4(3H)-one] | 13
O=c1c2cc(Cc3ccc(CF)nc3)c3ccccc3c2ncn1[C@H]1CCOC[C@@H]1O [Example 22, 6-{[6-(Fluoromethyl)pyridine-3-yl]methyl}-3-[(3R,4S)-3-hydroxytetrahydro-2H-pyran-4-yl]benzo[h]quinazolin-4(3H)-one] | 23
